One data set relates to mice. Briefly: Acute toxicity, mice perorally.
Data set [1] is described as follows: pH of aqueous solution of salts. The data set is classed as physicochemical.
For data set [2], the system named is isolated guinea pig ileum (spasmogenic effect of histamine). Briefly: Isolated guinea pig ileum, suppression of the spasmogenic effect of histamine. The data set is classed as cell-based. To be noted: histamine spasm, read-out: Antihistaminic activity, isolated ileum of guinea pig, IC50. An excerpt:
Study of the antihistaminic activity of the compounds on which a claim is made was done using known methodologies (Rukovodstvo po eksperimental'nomu izucheniyu novykh farmakologicheskikh veshchestv [Manual on experimental study of new pharmacological substances], Moscow, 2005, p. 489) on isolated guinea pig ileum (suppression of the spasmogenic effect of histamine) and on anesthetized guinea pigs (antagonism in relation to the bronchoconstrictor effect of histamine). In tests on intact animals, substances were administered intravenously (5 minutes before the administration of histamine) and orally (2 hours before the beginning of the study).

For data set [3], the system named is H1-histamine receptors (bronchoconstrictor effect of histamine). Briefly: Anesthetized guinea pigs, antagonism of the bronchoconstrictor effect of histamine (histamine bronchospasm model). The data set is classed as in vivo, guinea pig. Conditions: for Antihistaminic activity, guinea pigs in vivo, intravenous administration, ED50 / Antihistaminic activity, guinea pigs in vivo, peroral administration, ED50: anesthetized guinea pigs; for Antihistaminic activity, guinea pigs in vivo, intravenous administration, ED50: 5 minutes before histamine; for Antihistaminic activity, guinea pigs in vivo, peroral administration, ED50: orally 2 hours before the study; for ED50: Cavia porcellus. As to the method: In tests on intact animals, substances were administered intravenously (5 minutes before the administration of histamine) and orally (2 hours before the beginning of the study).

Structures can show the parent of a compound that is named as a salt. Where two headings read alike, the source gives them in different places.

Consider `Cl.Cl.Cn1c(=O)c2c(ncn2CC(O)CN2CCN(C(c3ccccc3)c3ccc(Cl)cc3)CC2)n(C)c1=O` (racemic) [II-i], for which, in the data set with mice, the “Acute toxicity, LD50” value is recorded as more than 1000.0 mg/kg.

On to `Cl.Cl.Cn1c(=O)c2c(ncn2CC(O)CN2CCN(C(c3ccc(F)cc3)c3ccc(F)cc3)CC2)n(C)c1=O` (racemic) [II-j], for which, in the data set on mice, the “Acute toxicity, LD50” value is recorded as more than 1000.0 mg/kg.

Take `Cn1c(=O)[nH]c(=O)c2c1ncn2CCCCN1CCN(C(c2ccccc2)c2ccccc2)CC1` [Dihydrochloride, 7-/4-(4-benzhydrylpiperazinyl-1)butyl/-3-methylxanthine]: the “pH of aqueous solution” value in data set [1] is given as 2.45.

In general, IC50 refers to the concentration at which inhibition is half-maximal. As to `Cn1c(=O)n(CC(O)CN2CCN(C(c3ccccc3)c3ccc(Cl)cc3)CC2)c(=O)c2c1ncn2Cc1ccccc1` (stereo not drawn) [I-aa, 1-[2-oxy-3-(4^1-chlorbenzhydryl-4-piperazinyl-1)propyl]-3-methyl-7-benzylxanthine], the IC50 in data set [2] turned out to be 536 nM.

`Cl.Cl.Cn1c(=O)n(CCCN2CCN(C(c3ccccc3)c3ccccc3)CC2)c(=O)c2c1ncn2Cc1ccccc1` [I-b]: in data set [2], the IC50 was 126 nM. The “Antihistaminic activity, guinea pigs in vivo, intravenous administration, ED50” value in data set [3] was 0.3 mg/kg. The “Acute toxicity, LD50” value in the data set with mice is more than 800.0 mg/kg.

In the case of `Cl.Cl.Cn1c(=O)n(CCCN2CCN(C(c3ccccc3)c3ccc(Cl)cc3)CC2)c(=O)c2c1ncn2Cc1ccccc1` (stereo not drawn) [I-c], the IC50 in data set [2] came to 133 nM. For the same compound, the “Acute toxicity, LD50” value with mice is listed as 400.0 mg/kg.

For the compound `Cl.Cl.Cn1c(=O)n(CCCN2CCN(C(c3ccc(F)cc3)c3ccc(F)cc3)CC2)c(=O)c2c1ncn2Cc1ccccc1` [I-d], the IC50 in data set [2] is 114 nM. For the same compound, in data set [3], the “Antihistaminic activity, guinea pigs in vivo, intravenous administration, ED50” value was 0.6 mg/kg and the “Antihistaminic activity, guinea pigs in vivo, peroral administration, ED50” value is given as 3.0 mg/kg. In the data set on mice, the “Acute toxicity, LD50” value was more than 250.0 mg/kg.

Consider `Cn1c(=O)n(CCCN2CCN(C(c3ccccc3)c3ccccc3)CC2)c(=O)c2c1ncn2Cc1ccc(F)cc1` [I-e], for which the IC50 in data set [2] worked out at 430 nM.

Take `Cn1c(=O)n(CCCN2CCN(C(c3ccc(F)cc3)c3ccc(F)cc3)CC2)c(=O)c2c1ncn2Cc1ccc(F)cc1` [I-f]: the IC50 in data set [2] was 514 nM.

Regarding `Cn1c(=O)n(CCCN2CCN(C(c3ccccc3)c3ccccc3)CC2)c(=O)c2c1ncn2CC(=O)O` [I-g], the IC50 in data set [2] was 244 nM.

For `Cl.Cl.Cn1c(=O)n(CCCCN2CCN(C(c3ccccc3)c3ccccc3)CC2)c(=O)c2c1ncn2Cc1ccccc1` [I-i], in data set [2], the IC50 is 111 nM. In addition, in data set [3], the “Antihistaminic activity, guinea pigs in vivo, intravenous administration, ED50” value is recorded as 0.2 mg/kg and the “Antihistaminic activity, guinea pigs in vivo, peroral administration, ED50” value is on record as 0.3 mg/kg. In the data set with mice, the “Acute toxicity, LD50” value is 400.0 mg/kg.

With `Cl.Cl.Cn1c(=O)n(CCCCN2CCN(C(c3ccccc3)c3ccccc3)CC2)c(=O)c2c1ncn2Cc1ccc(F)cc1` [I-j], in data set [2], the IC50 is 227 nM. Also, in the data set with mice, the “Acute toxicity, LD50” value is reported as 400.0 mg/kg.

Turning to `Cl.Cl.Cn1c(=O)n(CCCCN2CCN(C(c3ccc(F)cc3)c3ccc(F)cc3)CC2)c(=O)c2c1ncn2Cc1ccc(F)cc1` [I-k], the IC50 in data set [2] is 267 nM. Besides, the “Acute toxicity, LD50” value with mice is reported as 400.0 mg/kg.

As to `Cl.Cl.Cn1c(=O)n(CCCCN2CCN(C(c3ccc(F)cc3)c3ccc(F)cc3)CC2)c(=O)c2c1ncn2Cc1ccccc1` [I-l], the IC50 in data set [2] was found to be 185 nM. Besides, in data set [3], the “Antihistaminic activity, guinea pigs in vivo, intravenous administration, ED50” value came to 0.5 mg/kg and the “Antihistaminic activity, guinea pigs in vivo, peroral administration, ED50” value is reported as 0.5 mg/kg. The “Acute toxicity, LD50” value with mice is more than 1000.0 mg/kg.

Turning to `Cl.Cl.Cn1c(=O)n(CCCCCN2CCN(C(c3ccccc3)c3ccccc3)CC2)c(=O)c2c1ncn2Cc1ccccc1` [I-m], the IC50 in data set [2] was 92 nM. Also, the “Acute toxicity, LD50” value in the data set on mice is on record as more than 200.0 mg/kg.

With `Cl.Cl.Cn1c(=O)n(CCCCCN2CCN(C(c3ccc(F)cc3)c3ccc(F)cc3)CC2)c(=O)c2c1ncn2Cc1ccccc1` [I-n], in data set [2], the IC50 turned out to be 253 nM. Moreover, in data set [3], the “Antihistaminic activity, guinea pigs in vivo, intravenous administration, ED50” value was determined as 1.2 mg/kg and the “Antihistaminic activity, guinea pigs in vivo, peroral administration, ED50” value is 3.0 mg/kg. The “Acute toxicity, LD50” value in the data set on mice is recorded as 250 mg/kg.

With `Cl.Cl.Cn1c(=O)n(CCN2CCN(C(c3ccc(F)cc3)c3ccc(F)cc3)CC2)c(=O)c2[nH]cnc21` [I-p], the IC50 in data set [2] is 192 nM. For the same compound, in data set [3], the “Antihistaminic activity, guinea pigs in vivo, intravenous administration, ED50” value is 1.5 mg/kg.

Consider `Cl.Cl.Cn1c(=O)n(CCCN2CCN(C(c3ccccc3)c3ccccc3)CC2)c(=O)c2[nH]cnc21` [I-q], for which, in data set [2], the IC50 amounted to 42 nM. For the same compound, the “Antihistaminic activity, guinea pigs in vivo, intravenous administration, ED50” value in data set [3] was 0.4 mg/kg. The “Acute toxicity, LD50” value in the data set with mice was more than 1000.0 mg/kg.

Turning to `Cl.Cl.Cn1c(=O)n(CCCN2CCN(C(c3ccc(F)cc3)c3ccc(F)cc3)CC2)c(=O)c2[nH]cnc21` [I-r], in data set [2], the IC50 turned out to be 76 nM. Besides, the “Antihistaminic activity, guinea pigs in vivo, peroral administration, ED50” value in data set [3] is more than 3.0 mg/kg. Moreover, in the data set with mice, the “Acute toxicity, LD50” value was more than 1000.0 mg/kg.

For `Cl.Cl.Cn1c(=O)n(CCCCN2CCN(C(c3ccccc3)c3ccccc3)CC2)c(=O)c2[nH]cnc21` [I-s, 1-[4-(benzhydryl-4-piperazinyl-1)butyl]-3-methylxanthine dihydrochloride], in data set [2], the IC50 turned out to be 26 nM. Also, in data set [3], the “Antihistaminic activity, guinea pigs in vivo, intravenous administration, ED50” value stood at 0.2 mg/kg and the “Antihistaminic activity, guinea pigs in vivo, peroral administration, ED50” value was found to be 0.3 mg/kg. The “Acute toxicity, LD50” value in the data set with mice is recorded as more than 750.0 mg/kg.

On to `Cl.Cl.Cn1c(=O)n(CCCCN2CCN(C(c3ccccc3)c3ccc(Cl)cc3)CC2)c(=O)c2[nH]cnc21` (stereo not drawn) [I-t], for which the IC50 in data set [2] is 104 nM. Also, the “Antihistaminic activity, guinea pigs in vivo, intravenous administration, ED50” value in data set [3] is reported as 0.3 mg/kg. For the same compound, the “Acute toxicity, LD50” value in the data set with mice was more than 1000.0 mg/kg.

As for `Cl.Cl.Cn1c(=O)n(CCCCN2CCN(C(c3ccc(F)cc3)c3ccc(F)cc3)CC2)c(=O)c2[nH]cnc21` [I-u], in data set [2], the IC50 was 51 nM. Also, in data set [3], the “Antihistaminic activity, guinea pigs in vivo, intravenous administration, ED50” value was determined as 0.7 mg/kg and the “Antihistaminic activity, guinea pigs in vivo, peroral administration, ED50” value was more than 3.0 mg/kg. Further, the “Acute toxicity, LD50” value in the data set on mice is listed as more than 1000.0 mg/kg.

With `Cl.Cl.Cn1cnc2c1c(=O)n(CCCCN1CCN(C(c3ccccc3)c3ccccc3)CC1)c(=O)n2C` [I-v], in data set [2], the IC50 was determined as 32 nM. For the same compound, in data set [3], the “Antihistaminic activity, guinea pigs in vivo, intravenous administration, ED50” value is 0.2 mg/kg and the “Antihistaminic activity, guinea pigs in vivo, peroral administration, ED50” value is on record as more than 1.5 mg/kg. In addition, the “Acute toxicity, LD50” value in the data set with mice is on record as more than 1000.0 mg/kg.

As for `Cn1cnc2c1c(=O)n(CC(O)CN1CCN(C(c3ccccc3)c3ccccc3)CC1)c(=O)n2C` (stereo not drawn) [I-x, 1-[2-oxy-3-(benzhydryl-4-piperazinyl-1)propyl]-3,7-dimethylxanthine dihydrochloride], in data set [2], the IC50 amounted to 1270 nM.

As to `Cn1cnc2c1c(=O)n(CC(O)CN1CCN(C(c3ccccc3)c3ccc(Cl)cc3)CC1)c(=O)n2C` (stereo not drawn) [I-y, 1-[2-oxy-3-(4^1-chlorbenzhydryl-4-piperazinyl-1)propyl]-3,7-dimethylxanthine], the IC50 in data set [2] is 123 nM.

Consider `Cn1c(=O)n(CC(O)CN2CCN(C(c3ccccc3)c3ccccc3)CC2)c(=O)c2c1ncn2Cc1ccccc1` (stereo not drawn) [I-z, 1-[2-oxy-3-(benzhydryl-4-piperazinyl-1)-propyl]-3-methyl-7-benzylxanthine], for which the IC50 in data set [2] worked out at 524 nM.

On to `Cl.Cl.Cn1c(=O)c2c(ncn2CCCN2CCN(C(c3ccccc3)c3ccccc3)CC2)n(C)c1=O` [II-d], for which the IC50 in data set [2] came to 12 nM. In addition, the “Antihistaminic activity, guinea pigs in vivo, intravenous administration, ED50” value in data set [3] was 0.05 mg/kg. For the same compound, the “Acute toxicity, LD50” value with mice is listed as more than 1000.0 mg/kg.

In the case of `Cl.Cl.Cn1c(=O)[nH]c(=O)c2c1ncn2CCCN1CCN(C(c2ccccc2)c2ccccc2)CC1` [II-e], the IC50 in data set [2] was 19 nM. For the same compound, the “Antihistaminic activity, guinea pigs in vivo, intravenous administration, ED50” value in data set [3] is reported as 0.1 mg/kg. The “Acute toxicity, LD50” value with mice is 900.0 mg/kg.

As to `Cl.Cl.Cn1c(=O)c2c(ncn2CCCCN2CCN(C(c3ccccc3)c3ccccc3)CC2)n(C)c1=O` [II-f], the IC50 in data set [2] came to 17 nM. In addition, in data set [3], the “Antihistaminic activity, guinea pigs in vivo, intravenous administration, ED50” value came to 0.1 mg/kg and the “Antihistaminic activity, guinea pigs in vivo, peroral administration, ED50” value is less than 1.5 mg/kg. The “Acute toxicity, LD50” value with mice is reported as 750.0 mg/kg.

Turning to `Cl.Cl.Cn1c(=O)c2c(ncn2CC(O)CN2CCN(C(c3ccccc3)c3ccccc3)CC2)n(C)c1=O` (stereo not drawn) [II-h, 1,3-dimethyl-7-[2-oxy-3-(benzhydryl-4-piperazinyl-1)propyl]xanthine dihydrochloride], in data set [3], the “Antihistaminic activity, guinea pigs in vivo, intravenous administration, ED50” value came to 0.1 mg/kg and the “Antihistaminic activity, guinea pigs in vivo, peroral administration, ED50” value was 2.0 mg/kg. Also, the “Acute toxicity, LD50” value in the data set with mice is more than 1000.0 mg/kg.

Turning to `CCOC(=O)N1CCC(=C2c3ccc(Cl)cc3CCc3cccnc32)CC1` [Loratadine, reference compound], in data set [2] (Cavia porcellus), the IC50 was 472 nM. Also, the ED50 stood at 0.3 mg/kg in data set [3] (iv, read-out: Antihistaminic activity, guinea pigs in vivo, intravenous administration, ED50) and 0.9 mg/kg in data set [3] (po, read-out: Antihistaminic activity, guinea pigs in vivo, peroral administration, ED50). For the same compound, the “Duration of effective blockade of H1-histamine receptors” value in data set [3] (histamine bronchospasm model, oral dose of 3 mg/kg) was 18 h.

As for `Cn1c(=O)[nH]c(=O)c2c1ncn2CCCCN1CCN(C(c2ccccc2)c2ccccc2)CC1` [Oxalate, 7-/4-(4-benzhydrylpiperazinyl-1)butyl/-3-methylxanthine], the “pH of aqueous solution” value in data set [1] was 3.44.

Source of the values: patent publication US8569489B2 (A.B. Intelpharm Limited, priority 2007, dated 2013).
